The values below come from patent US20240182420A1, “MICROBIOCIDAL ISONICOTINIC AMIDE DERIVATIVES” (SYNGENTA CROP PROTECTION AG, priority 2021, published 2024).

Each structure is given as a SMILES string.

The test system of experiment [1] is Botryotinia fuckeliana syn. Botrytis cinerea. Kind of experiment: Botryotinia fuckeliana syn. Botrytis cinerea (gray mould), liquid culture growth inhibition. It counts as cell-based. The settings on record: PDB nutrient broth, 24° C., 72 hrs, photometric, vs untreated control. As for the experimental part: Conidia of the fungus from cryogenic storage were directly mixed into nutrient broth (PDB potato dextrose broth). A DMSO solution of the test compounds was placed into a microtiter plate (96-well format) and the nutrient broth containing the fungal spores was added to it. The test plates were incubated at 24° C. and the inhibition of growth was determined photometrically after 72 hrs.

The test system is the same in experiment [2]. Kind of experiment: Botryotinia fuckeliana syn. Botrytis cinerea (grey mold on tomato), tomato plants. It counts as in vivo. Particulars: tomato plants cv. Roter Gnom, inoculated two days after application, leaf area covered by disease 5-6 days after application. The protocol: 4-week old tomato plants cv. Roter Gnom are treated sprayed in a spray chamber with the formulated test compound diluted in water. The test plants are inoculated by spraying them with a spore suspension two days after application. The inoculated test plants are incubated at 20° C. and 95% rh in a greenhouse and the percentage leaf area covered by disease is assessed when an appropriate level of disease appears on untreated check plants (5-6 days after application).

Experiment [3] relates to Glomerella lagenarium syn Colletotrichum lagenarium. Kind of experiment: Glomerella lagenarium syn. Colletotrichum lagenarium (anthracnose), liquid culture growth inhibition. It is filed as cell-based. Particulars: Colletotrichum orbiculare, PDB nutrient broth, 24° C., 72 hrs, 620 nm, vs untreated control. As for the experimental part: Conidia of the fungus from cryogenic storage were directly mixed into nutrient broth (PDB potato dextrose broth). A DMSO solution of the test compounds was placed into a microtiter plate (96-well format) and the nutrient broth containing the fungal spores was added to it. The test plates were incubated at 24° C. and the inhibition of growth was determined photometrically after 72 hrs at 620 nm.

The inhibition of growth is the change of the read-out against control, counted positive when it falls. The term pest or weed control denotes how far the test organism was held down. A low value points to a weak effect. In turn, `Cc1cccc(Oc2cnc(Cl)cc2C(=O)NCCc2ccc(Cl)cc2Cl)c1` [Compound 1.4, 2-chloro-N-[2-(2,4-dichlorophenyl)ethyl]-5-(3-methylphenoxy)pyridine-4-carboxamide] gave an inhibition of growth at 20 ppm in experiment [1] of at least 80%. The compound further had a pest or weed control at 200 ppm in experiment [2] of at least 50%.
As to `O=C(NCC(F)c1ccc(Cl)cc1Cl)c1c(F)cncc1Oc1cccc(C2CC2)c1` (stereo not shown) [Compound 1.6, 3-(3-cyclopropyl-phenoxy)-N-[2-(2,4-dichlorophenyl)-2-fluoro-ethyl]-5-fluoro-pyridine-4-carboxamide], the inhibition of growth at 20 ppm in experiment [1] and in experiment [3] was at least 80% throughout. This compound displayed a pest or weed control at 200 ppm in experiment [2] of at least 50%.
`O=C(NCC(F)c1ccc(Cl)cc1Cl)c1cc(C(F)(F)F)ncc1Oc1cccc(C2CC2)c1` (stereo not shown) [Compound 1.9, 5-(3-cyclopropyl-phenoxy)-N-[2-(2,4-dichlorophenyl)-2-fluoro-ethyl]-2-(trifluoromethyl) pyridine-4-carboxamide]: the inhibition of growth at 20 ppm in experiment [1] and in experiment [3] was at least 80% throughout. In experiment [2], this compound yielded a pest or weed control at 200 ppm of at least 50%.
With `CS(=O)(=O)c1cc(C(=O)NCC(F)c2ccc(Cl)cc2Cl)c(Oc2cccc(C3CC3)c2)cn1` (stereo not shown) [Compound 1.10, 5-(3-cyclopropyl-phenoxy)-N-[2-(2,4-dichlorophenyl)-2-fluoro-ethyl]-2-methylsulfonyl-pyridine-4-carboxamide], the inhibition of growth at 20 ppm in experiment [1] and in experiment [3] was at least 80% throughout. Further, the pest or weed control at 200 ppm in experiment [2] was at least 50%.
As to `O=C(NCC(F)c1ccc(Cl)cc1Cl)c1ccncc1Oc1cccc(C2CC2)c1` (stereo not shown) [Compound 1.11, 3-(3-cyclopropyl-phenoxy)-N-[2-(2,4-dichlorophenyl)-2-fluoro-ethyl]pyridine-4-carboxamide], the pest or weed control at 200 ppm in experiment [2] was at least 50%. This compound gave an inhibition of growth at 20 ppm in experiment [3] of at least 80%.
In the case of `O=C(NCCc1ccc(Cl)cc1Cl)c1cc(Cl)ncc1Oc1cccc(C2CC2)c1` [Compound 1.15, 2-chloro-5-(3-cyclopropyl-phenoxy)-N-[2-(2,4-dichlorophenyl)ethyl]pyridine-4-carboxamide], the inhibition of growth at 20 ppm in experiment [1] and in experiment [3] was at least 80% each time. In experiment [2], this compound displayed a pest or weed control at 200 ppm of at least 50%.
On to `O=C(NCC(F)c1ccc(Cl)cc1Cl)c1cc(Cl)ncc1Oc1cccc(C2CC2)c1` (stereo not shown) [Compound 1.16, 2-chloro-5-(3-cyclopropyl-phenoxy)-N-[2-(2,4-dichlorophenyl)-2-fluoro-ethyl]pyridine-4-carboxamide], for which the inhibition of growth at 20 ppm in experiment [1] and in experiment [3] was at least 80% in each case. Besides, the pest or weed control at 200 ppm in experiment [2] is at least 50%.
As to `O=C(NCCc1ccc(Cl)cc1Cl)c1c(Cl)cncc1Oc1cccc(C2CC2)c1` [Compound 1.21, 3-chloro-5-(3-cyclopropyl-phenoxy)-N-[2-(2,4-dichlorophenyl)ethyl]pyridine-4-carboxamide], the inhibition of growth at 20 ppm in experiment [1] and in experiment [3] was at least 80% in each case. Besides, the pest or weed control at 200 ppm in experiment [2] is at least 50%.
As to `O=C(NCC(F)c1ccc(Cl)cc1Cl)c1cc(C2CC2)ncc1Oc1cccc(C2CC2)c1` (stereo not shown) [Compound 1.22, 2-cyclopropyl-5-(3-cyclopropyl-phenoxy)-N-[2-(2,4-dichlorophenyl)-2-fluoro-ethyl]pyridine-4-carboxamide], the inhibition of growth at 20 ppm in experiment [1] and in experiment [3] was at least 80% in each case. This compound displayed a pest or weed control at 200 ppm in experiment [2] of at least 50%.
Regarding `COc1ccc(CCNC(=O)c2cc(Cl)ncc2Oc2cccc(C3CC3)c2)cc1` [Compound 1.35, 2-chloro-5-(3-cyclopropyl-phenoxy)-N-[2-(4-methoxyphenyl)ethyl]pyridine-4-carboxamide], the inhibition of growth at 20 ppm in experiment [1] and in experiment [3] was at least 80% each time. In experiment [2], the pest or weed control at 200 ppm is at least 50%.
In experiment [1], `C#Cc1cccc(Oc2cnc(C)cc2C(=O)NCC(F)c2ccc(C)cc2C)c1` (stereo not shown) [Compound 1.38, N-[2-(2,4-dimethylphenyl)-2-fluoro-ethyl]-5-(3-ethynylphenoxy)-2-methyl-pyridine-4-carboxamide] had an inhibition of growth at 20 ppm of at least 80%. Besides, in experiment [2], the pest or weed control at 200 ppm was at least 50%.
As to `C#Cc1cccc(Oc2cnc(Br)cc2C(=O)NCC(F)c2ccc(C)cc2C)c1` (stereo not shown) [Compound 1.43, 2-bromo-N-[2-(2,4-dimethylphenyl)-2-fluoro-ethyl]-5-(3-ethynylphenoxy) pyridine-4-carboxamide], the inhibition of growth at 20 ppm in experiment [1] and in experiment [3] was at least 80% throughout. The same compound yielded a pest or weed control at 200 ppm in experiment [2] of at least 50%.
Consider `O=C(NCC(F)c1ccc(F)cc1F)c1cc(Cl)ncc1Oc1cccc(C2CC2)c1` (stereo not shown) [Compound 1.58, 2-chloro-5-(3-cyclopropyl-phenoxy)-N-[2-(2,4-difluorophenyl)-2-fluoro-ethyl]pyridine-4-carboxamide], for which the inhibition of growth at 20 ppm in experiment [1] and in experiment [3] was at least 80% each time. In addition, in experiment [2], the pest or weed control at 200 ppm was at least 50%.
`COc1cccc(Oc2cnc(Cl)cc2C(=O)NCC(F)c2ccc(Cl)cc2Cl)c1` (stereo not shown) [Compound 1.61, 2-chloro-N-[2-(2,4-dichlorophenyl)-2-fluoro-ethyl]-5-(3-methoxyphenoxy) pyridine-4-carboxamide]: the inhibition of growth at 20 ppm in experiment [1] and in experiment [3] was at least 80% each time. Moreover, the pest or weed control at 200 ppm in experiment [2] was at least 50%.
Consider `O=C(NCCc1ccc(Cl)cc1Cl)c1cc(Cl)ncc1Oc1cccc(Cl)c1` [Compound 1.68, 2-chloro-5-(3-chlorophenoxy)-N-[2-(2,4-dichlorophenyl)ethyl]pyridine-4-carboxamide], for which the inhibition of growth at 20 ppm in experiment [1] and in experiment [3] was at least 80% each time.
For `O=C(NCC(F)(F)c1ccccc1)c1cc(Cl)ncc1Oc1cccc(C2CC2)c1` [Compound 1.71, 2-chloro-5-(3-cyclopropyl-phenoxy)-N-(2,2-difluoro-2-phenyl-ethyl)pyridine-4-carboxamide], the inhibition of growth at 20 ppm in experiment [1] and in experiment [3] was at least 80% each time.
Consider `O=C(N[C@@H]1C[C@@H]1c1ccc(F)cc1)c1cc(Cl)ncc1Oc1cccc(C2CC2)c1` [Compound 1.75, 2-chloro-5-(3-cyclopropyl-phenoxy)-N-[(1R,2R)-2-(4-fluorophenyl)cyclopropyl]pyridine-4-carboxamide], for which the inhibition of growth at 20 ppm in experiment [1] and in experiment [3] was at least 80% throughout.
For `Cc1ccc(C(F)(F)CNC(=O)c2cc(Cl)ncc2Oc2cccc(C3CC3)c2)c(C)c1` [Compound 1.76, 2-chloro-5-(3-cyclopropyl-phenoxy)-N-[2-(2,4-dimethylphenyl)-2,2-difluoro-ethyl]pyridine-4-carboxamide], the inhibition of growth at 20 ppm in experiment [1] and in experiment [3] was at least 80% throughout.
For the compound `Cc1ccc(CCNC(=O)c2cc(Cl)ncc2Oc2cccc(C3CC3)c2)c(C)c1` [Compound 1.77, 2-chloro-5-(3-cyclopropyl-phenoxy)-N-[2-(2,4-dimethylphenyl)ethyl]pyridine-4-carboxamide], the inhibition of growth at 20 ppm in experiment [1] and in experiment [3] was at least 80% throughout.
Regarding `CCc1ccc(C(F)CNC(=O)c2cc(Cl)ncc2Oc2cccc(C3CC3)c2)c(F)c1` (stereo not shown) [Compound 1.80, 2-chloro-5-(3-cyclopropyl-phenoxy)-N-[2-(4-ethyl-2-fluoro-phenyl)-2-fluoro-ethyl]pyridine-4-carboxamide], the inhibition of growth at 20 ppm in experiment [1] and in experiment [3] was at least 80% throughout. The pest or weed control at 200 ppm in experiment [2] was at least 50%.
Consider `C#Cc1ccc(C(F)CNC(=O)c2cc(Cl)ncc2Oc2cccc(C3CC3)c2)c(F)c1` (stereo not shown) [Compound 1.82, 2-chloro-5-(3-cyclopropyl-phenoxy)-N-[2-(4-ethynyl-2-fluoro-phenyl)-2-fluoro-ethyl]pyridine-4-carboxamide], for which the inhibition of growth at 20 ppm in experiment [1] and in experiment [3] was at least 80% in each case. The same compound gave a pest or weed control at 200 ppm in experiment [2] of at least 50%.
Take `CC(C)=Cc1ncc(Oc2cccc(C3CC3)c2)c(C(=O)NCC(F)c2ccc(Cl)cc2Cl)c1O` (stereo not shown) [Compound 1.89, 5-(3-cyclopropyl-phenoxy)-N-[2-(2,4-dichlorophenyl)-2-fluoro-ethyl]-3-hydroxy-2-(2-methylprop-1-enyl)pyridine-4-carboxamide]: the inhibition of growth at 20 ppm in experiment [1] and in experiment [3] was at least 80% each time.
As to `Cc1cc(C(=O)NCC2(c3ccc(Cl)cc3Cl)CC2)c(Oc2cccc(C3CC3)c2)cn1` [Compound 1.90, 5-(3-cyclopropyl-phenoxy)-N-[[1-(2,4-dichlorophenyl)cyclopropyl]methyl]-2-methyl-pyridine-4-carboxamide], the inhibition of growth at 20 ppm in experiment [1] and in experiment [3] was at least 80% each time.
For the compound `Cc1cncc(Oc2cccc(C3CC3)c2)c1C(=O)NC[C@@H](F)c1ccc(Cl)cc1Cl` [Compound 1.93, 3-(3-cyclopropyl-phenoxy)-N-[(2S)-2-(2,4-dichlorophenyl)-2-fluoro-ethyl]-5-methyl-pyridine-4-carboxamide], the inhibition of growth at 20 ppm in experiment [1] and in experiment [3] was at least 80% in each case.
